Assay results as given in publication PMC6832920, “Synthesis, Docking Studies, and In Vitro Evaluation of Some Novel Thienopyridines and Fused Thienopyridine–Quinolines as Antibacterial Agents and DNA Gyrase Inhibitors” (Molecules, 2019).
≈ marks a conversion by molar mass, not a printed value.

Legend:
Bacillus cereus 33018 [1] = test: agar disc-diffusion antibacterial assay; format: cell-based; details: B. cereus 33018, disc loaded with 100 μg, 37 °C, 24 h, read-out: diameter of inhibition zone
Procedure: (§1) A 100 μL measure of NB containing each test microorganism was added to the sterile Petri dishes. Antibacterial testing was carried out on all compounds (3a,b–14) using the agar disc-diffusion method [40]. Sterile nutrients were inoculated with 100 μL cell suspension of the chosen test microorganism and poured into Petri dishes (20 cm diameter). Filter paper discs (Whatman, No.3, diameter 5 mm) were loaded with 10 μL containing 100 μg of the tested compounds, as well as the standard drug. Composite compound disks were placed on the surface of inoculated agar plates and kept at low temperatures before incubation in order to support the swelling and diffusion of the microbial growth. The plates were incubated at 37 °C in the incubator. Experiments were performed in duplicate and the diameters of inhibition zones were measured after 24 h. A diameter of inhibition zone (DIZ) assay was performed to evaluate the antimicrobial potential of the compounds against the tested organisms compared with reference antibiotics.

Bacillus cereus 33018 [2] = test: MIC determination by dilution procedure; format: cell-based; details: B. cereus 33018, dilutions 125-1.95 μg/mL, read-out: minimum inhibitory concentration (MIC)
Procedure: as §1

[3] = test system: Salmonella typhimurium 14028; test: agar disc-diffusion antibacterial assay; format: cell-based; details: Salmonella enterica; S. typhimurium 14028; disc loaded with 100 μg; 37 °C, 24 h; read-out: diameter of inhibition zone
Procedure: (§2) The clinical control strains of Gram-negative bacteria (Escherichia coli 8739, Salmonella typhimurium 14028, Pseudomonas aeruginosa 27853) and Gram-positive bacteria (Bacillus subtilis 6633, Bacillus cereus 33018, Staphylococcus aureus 25923), were obtained from microbial inoculums by subculturing microorganisms into nutrient broth (NB) at 37 °C for 18 h, and were adjusted to 0.125 A° at 625 nm (equivalent to a McFarland 0.5) in 2-fold NB. A 100 μL measure of NB containing each test microorganism was added to the sterile Petri dishes. Antibacterial testing was carried out on all compounds (3a,b–14) using the agar disc-diffusion method [40]. Sterile nutrients were inoculated with 100 μL cell suspension of the chosen test microorganism and poured into Petri dishes (20 cm diameter). Filter paper discs (Whatman, No.3, diameter 5 mm) were loaded with 10 μL containing 100 μg of the tested compounds, as well as the standard drug. Composite compound disks were placed on the surface of inoculated agar plates and kept at low temperatures before incubation in order to support the swelling and diffusion of the microbial growth. The plates were incubated at 37 °C in the incubator. Experiments were performed in duplicate and the diameters of inhibition zones were measured after 24 h.

Bacillus subtilis 6633 [4] = test: agar disc-diffusion antibacterial assay; format: cell-based; details: B. subtilis 6633, disc loaded with 100 μg, 37 °C, 24 h, read-out: diameter of inhibition zone
Procedure: as §1

[5] = test system: Staphylococcus aureus 25923; test: MIC determination by dilution procedure; format: cell-based; details: dilutions 125-1.95 μg/mL; for MIC: Staphylococcus aureus, 25923, S. aureus 25923, read-out: minimum inhibitory concentration (MIC)
Procedure: as §1

[6] = test system: Pseudomonas aeruginosa 27853; test: MIC determination by dilution procedure; format: cell-based; details: dilutions 125-1.95 μg/mL; for MIC: Pseudomonas aeruginosa, 27853, P. aeruginosa 27853, read-out: minimum inhibitory concentration (MIC)
[7] = test system: Staphylococcus aureus 25923; test: agar disc-diffusion antibacterial assay; format: cell-based; details: S. aureus 25923, disc loaded with 100 μg, 37 °C, 24 h, read-out: diameter of inhibition zone
Procedure: (§3) The clinical control strains of Gram-negative bacteria (Escherichia coli 8739, Salmonella typhimurium 14028, Pseudomonas aeruginosa 27853) and Gram-positive bacteria (Bacillus subtilis 6633, Bacillus cereus 33018, Staphylococcus aureus 25923), were obtained from microbial inoculums by subculturing microorganisms into nutrient broth (NB) at 37 °C for 18 h, and were adjusted to 0.125 A° at 625 nm (equivalent to a McFarland 0.5) in 2-fold NB. A 100 μL measure of NB containing each test microorganism was added to the sterile Petri dishes. Antibacterial testing was carried out on all compounds (3a,b–14) using the agar disc-diffusion method [40]. Sterile nutrients were inoculated with 100 μL cell suspension of the chosen test microorganism and poured into Petri dishes (20 cm diameter). Filter paper discs (Whatman, No.3, diameter 5 mm) were loaded with 10 μL containing 100 μg of the tested compounds, as well as the standard drug. Composite compound disks were placed on the surface of inoculated agar plates and kept at low temperatures before incubation in order to support the swelling and diffusion of the microbial growth. The plates were incubated at 37 °C in the incubator. Experiments were performed in duplicate and the diameters of inhibition zones were measured after 24 h. A diameter of inhibition zone (DIZ) assay was performed to evaluate the antimicrobial potential of the compounds against the tested organisms compared with reference antibiotics.

Escherichia coli 8739 [8] = test: MIC determination by dilution procedure; format: cell-based; details: E. coli 8739, dilutions 125-1.95 μg/mL, read-out: minimum inhibitory concentration (MIC)
Escherichia coli 8739 [9] = test: agar disc-diffusion antibacterial assay; format: cell-based; details: E. coli 8739, disc loaded with 100 μg, 37 °C, 24 h, read-out: diameter of inhibition zone
Procedure: as §3

Bacillus subtilis 6633 [10] = test: MIC determination by dilution procedure; format: cell-based; details: B. subtilis 6633, dilutions 125-1.95 μg/mL, read-out: minimum inhibitory concentration (MIC)
Procedure: as §1

[11] = test system: Pseudomonas aeruginosa 27853; test: agar disc-diffusion antibacterial assay; format: cell-based; details: P. aeruginosa 27853, disc loaded with 100 μg, 37 °C, 24 h, read-out: diameter of inhibition zone
Procedure: as §3

[12] = test system: Salmonella typhimurium 14028; test: MIC determination by dilution procedure; format: cell-based; details: Salmonella enterica; S. typhimurium 14028; dilutions 125-1.95 μg/mL; read-out: minimum inhibitory concentration (MIC)
Procedure: as §2

| Compound | zone of inhibition at 100 µg/disc (Bacillus cereus 33018 [1]) [mm] | MIC (Bacillus cereus 33018 [2]) [µg/mL] | zone of inhibition at 100 µg/disc [3] [mm] | zone of inhibition at 100 µg/disc (Bacillus subtilis 6633 [4]) [mm] | MIC [5] [µg/mL] | MIC [6] [µg/mL] | zone of inhibition at 100 µg/disc [7] [mm] | MIC (Escherichia coli 8739 [8]) [µg/mL] | zone of inhibition at 100 µg/disc (Escherichia coli 8739 [9]) [mm] | MIC (Bacillus subtilis 6633 [10]) [µg/mL] | zone of inhibition at 100 µg/disc [11] [mm] | MIC [12] [µg/mL] | melting point [°C] | minimum inhibitory concentration (MIC) ([5]; S. aureus 25923) [µg/mL] | minimum inhibitory concentration (MIC) ([6]; P. aeruginosa 27853) [µg/mL] |
| --- | --- | --- | --- | --- | --- | --- | --- | --- | --- | --- | --- | --- | --- | --- | --- |
| CC1(C)S[C@@H]2[C@H](NC(=O)[C@H](N)c3ccc(O)cc3)C(=O)N2[C@H]1C(=O)O [Amoxicillin, amoxicillin trihydrate, reference compound] | 19 | 15.6 | 21 | 17 | 15.6 | 15.6 | 19 | 15.6 | 20 | 15.6 | 18 | 15.6 | – | – | – |
| COc1ccc(-c2cc(-c3ccco3)nc(SCC(N)=O)c2C#N)cc1 [Compound 2a, 2-((3-Cyano-6-(furan-2-yl)-4-(4-methoxyphenyl)pyridin-2-yl)thio)acetamide] | – | – | – | – | – | – | – | – | – | – | – | – | 246 | – | – |
| N#Cc1c(-c2cccs2)cc(-c2ccco2)nc1SCC(N)=O [Compound 2b, 2-((3-Cyano-6-(furan-2-yl)-4-(thiophen-2-yl)pyridin-2-yl)thio)acetamide] | – | – | – | – | – | – | – | – | – | – | – | – | 242 | – | – |
| NC(=O)c1sc2nc(-c3ccco3)cc(-c3cccs3)c2c1N=C1CCCCC1 [Compound 4b, 3-(Cyclohexylideneamino)-6-(furan-2-yl)-4-(thiophen-2-yl)thieno[2,3-b]pyridine-2-carboxamide] | – | – | 15 | 10 | 31.2 (≈ 74.1 µM) | – | 12 | 31.2 (≈ 74.1 µM) | 12 | 31.2 (≈ 74.1 µM) | – | 15.6 (≈ 37.1 µM) | 320 to 322 | – | – |
| COc1ccc(-c2cc(-c3ccco3)nc3sc4c(N)c5c(nc4c23)CCCC5)cc1 [Compound 5a, 2-(Furan-2-yl)-4-(4-methoxyphenyl)-6,7,8,9-tetrahydropyrido[3′,2′:4,5]thieno[3,2-b]quinolin-10-amine] | 13 | 31.2 (≈ 73.1 µM) | – | 10 | – | 31.2 (≈ 73.1 µM) | – | 31.2 (≈ 73.1 µM) | 12 | 31.2 (≈ 73.1 µM) | 12 | – | 231 | – | – |
| NNCC(=O)Nc1c2c(nc3c1sc1nc(-c4ccco4)cc(-c4cccs4)c13)CCCC2 [Compound 7b, N-(2-(furan-2-yl)-4-(thiophen-2-yl)-6,7,8,9-tetrahydropyrido[3′,2′:4,5]thieno[3,2-b]quinolin-10-yl)-2-hydrazinylacetamide] | 11 | 31.2 (≈ 65.7 µM) | 10 | 8 | 31.2 (≈ 65.7 µM) | 31.2 (≈ 65.7 µM) | 10 | – | – | 62.5 (≈ 131 µM) | 12 | 31.2 (≈ 65.7 µM) | 306 | – | – |
| COc1ccc(-c2cc(-c3ccco3)nc3sc4c(NC(=O)CNN=Cc5ccc(OC)c(OC)c5)c5c(nc4c23)CCCC5)cc1 [Compound 8a, 2-(2-(3,4-Dimethoxybenzylidene)hydrazinyl)-N-(2-(furan-2-yl)-4-(4-methoxyphenyl)-6,7,8,9-tetrahydropyrido[3′,2′:4,5]thieno[3,2-b]quinolin-10-yl)acetamide] | 9 | 31.2 (≈ 48.2 µM) | – | 11 | 31.2 (≈ 48.2 µM) | – | 11 | – | – | 31.2 (≈ 48.2 µM) | – | – | 187 | – | – |
| COc1ccc(-c2cc(-c3ccco3)nc3sc4c(NC(=O)CNN=Cc5ccc(C)cc5)c5c(nc4c23)CCCC5)cc1 [Compound 8b, N-(2-(furan-2-yl)-4-(4-methoxyphenyl)-6,7,8,9-tetrahydropyrido[3′,2′:4,5]thieno[3,2-b]quinolin-10-yl)-2-(2-(4-methylbenzylidene)hydrazinyl)acetamide] | 9 | 62.5 (≈ 104 µM) | – | 9 | 62.5 (≈ 104 µM) | – | 8 | – | – | 31.2 (≈ 51.9 µM) | – | – | 122 | – | – |
| COc1ccc(-c2cc(-c3ccco3)nc3sc4c(NC(=O)CN5CCOCC5)c5c(nc4c23)CCCC5)cc1 [Compound 9a, N-(2-(furan-2-yl)-4-(4-methoxyphenyl)-6,7,8,9-tetrahydropyrido[3′,2′:4,5]thieno[3,2-b]quinolin-10-yl)-2-morpholinoacetamide] | 16 | 15.6 (≈ 28.2 µM) | – | 14 | 15.6 (≈ 28.2 µM) | 15.6 (≈ 28.2 µM) | 12 | 15.6 (≈ 28.2 µM) | – | 15.6 (≈ 28.2 µM) | 11 | 15.6 (≈ 28.2 µM) | 143 | 31.25 (≈ 56.3 µM) | 31.25 (≈ 56.3 µM) |
| COc1ccc(-c2cc(-c3ccco3)nc3sc4c(NS(=O)(=O)c5ccccc5)c5c(nc4c23)CCCC5)cc1 [Compound 10, N-(2-(Furan-2-yl)-4-(4-methoxyphenyl)-6,7,8,9-tetrahydropyrido[3′,2′:4,5]thieno [3,2-b]quinolin-10-yl)benzenesulfonamide] | 9 | 62.5 (≈ 110 µM) | – | 8 | 31.2 (≈ 55 µM) | – | 9 | – | – | 62.5 (≈ 110 µM) | – | – | 303 to 304 | – | – |
| COc1ccc(-c2cc(-c3ccco3)nc3sc4c(NC(=O)Nc5ccccc5)c5c(nc4c23)CCCC5)cc1 [Compound 11, 1-(2-(Furan-2-yl)-4-(4-methoxyphenyl)-6,7,8,9-tetrahydropyrido[3′,2′:4,5]thieno [3,2-b]quinolin-10-yl)-3-phenylurea] | 8 | 62.5 (≈ 114 µM) | – | 9 | 62.5 (≈ 114 µM) | – | 8 | – | – | 31.2 (≈ 57.2 µM) | – | – | 118 to 120 | – | – |
| COc1ccc(-c2cc(-c3ccco3)nc3sc4c(N=Cc5ccc(N(C)C)cc5)c5c(nc4c23)CCCC5)cc1 [Compound 12a, 4-(((2-(furan-2-yl)-4-(4-methoxyphenyl)-6,7,8,9-tetrahydropyrido[3′,2′:4,5]thieno[3,2-b]quinolin-10-yl)imino)methyl)-N,N-dimethylaniline] | 11 | 31.2 (≈ 55.9 µM) | 8 | 13 | 31.2 (≈ 55.9 µM) | 62.5 (≈ 112 µM) | 10 | 31.2 (≈ 55.9 µM) | 11 | 31.2 (≈ 55.9 µM) | 9 | 62.5 (≈ 112 µM) | 149 | – | – |
| CC(=O)CC(=O)Nc1c2c(nc3c1sc1nc(-c4ccco4)cc(-c4cccs4)c13)CCCC2 [Compound 13, N-(2-(furan-2-yl)-4-(thiophen-2-yl)-6,7,8,9-tetrahydropyrido[3′,2′:4,5]thieno[3,2-b]quinolin-10-yl)-3-oxobutanamide] | 16 | 15.6 (≈ 32.1 µM) | 7 | 15 | 31.2 (≈ 64.1 µM) | 31.2 (≈ 64.1 µM) | 12 | 62.5 (≈ 128 µM) | 8 | 15.6 (≈ 32.1 µM) | 11 | 62.5 (≈ 128 µM) | 217 to 218 | – | – |
